Assay results from article PMC6347521 (Current protocols in toxicology, 2018).
Read-outs that look alike come from different tables or passages of the source.

What was measured:
2D = settings: read-out: IC50 2D (literature review), cited from earlier work
[1] = tested on: Hep3B human hepatoma cell line; test: cells; type: cell-based; settings: read-out: IC50 Hoechst
[2] = tested on: Hep3B human hepatoma cell line; test: cells; type: cell-based; settings: read-out: IC50 mBCl
[3] = tested on: Hep3B human hepatoma cell line; test: cells; type: cell-based; settings: read-out: IC50 TMRM
[4] = tested on: Hep3B human hepatoma cell line; test: cells; type: cell-based; settings: read-out: IC50 Calcein AM
rat = settings: ref not given; cited from earlier work
[5] = 2D cell culture, ref literature review

SMILES	IC50 (2D) [µM]	IC50 [1] [µM]	IC50 [2] [µM]	IC50 [3] [µM]	IC50 [4] [µM]	IC50 (2D; [5]) [µM]	IC50 ([1]; Homo sapiens, Hep3B, 48 h) [µM]	IC50 ([2]; Homo sapiens, Hep3B, 48 h) [µM]	IC50 ([3]; Homo sapiens, Hep3B, 48 h) [µM]	IC50 ([4]; Homo sapiens, Hep3B, 48 h) [µM]	LD50 mg/kg (rat oral) (rat) [mg/kg]
O=C([O-])CC(O)(CC(=O)[O-])C(=O)[O-].[Na+].[Na+].[Na+] [Sodium citrate]	> 1400	> 1400	> 1400	> 1400	> 1400	–	–	–	–	–	–
CC1=CC(=O)c2ccccc2C1=O [Menadione]	–	–	–	–	–	13.5 ± 3.6	20 ± 1	15 ± 2.3	11.5 ± 2.5	11 ± 3.8	–
CC/C(=C(\c1ccccc1)c1ccc(OCCN(C)C)cc1)c1ccccc1 [Tamoxifen]	–	–	–	–	–	–	–	–	–	–	4100
C=C(C)[C@H]1Cc2c(ccc3c2O[C@@H]2COc4cc(OC)c(OC)cc4[C@@H]2C3=O)O1 [Rotenone]	–	–	–	–	–	1.7 ± 1.2	3	1.7 ± 0.7	0.6 ± 0.3	8 ± 6	30
CC[C@H](C)C(=O)O[C@H]1C[C@@H](C)C=C2C=C[C@H](C)[C@H](CC[C@@H]3C[C@@H](O)CC(=O)O3)[C@H]21 [Lovastatin]	20 ± 3.7	–	–	–	–	–	188 ± 17.7	195 ± 5	152 ± 6.7	150	5000
CC(=O)Nc1ccc(O)cc1 [Acetaminophen]	29800	–	–	–	–	–	> 2100	> 2100	> 2100	> 2100	–
